Test results published in the RepoRT retention time repository.

Test: A: acetonitrile + 0.1% formic acid + 10 mM ammonium formate; B: 5% water + 95% acetonitrile + 0.1% formic acid + 10 mM ammonium formate; gradient (min/%B) 0/10 2/10 22/100 27/100 27.1/10
Conditions: stereoisomer not certain

| SMILES | LC retention time |
| --- | --- |
| CCN(CC)c1ccc2c(-c3ccccc3C(=O)[O-])c3ccc(=[N+](CC)CC)cc-3oc2c1 [Rhodamine B] | 0.776 min |
| NC(=O)c1ncn(C2OC(CO)C(O)C2O)n1 (configuration not stated) [Ribavirin] | 3.11 min |
| Cc1cc2nc3c(=O)[nH]c(=O)nc-3n(CC(O)C(O)C(O)COP(=O)(O)O)c2cc1C (configuration not stated) [Riboflavin 5'-Monophosphate] | 6.38 min |
| Cc1cc2nc3c(=O)[nH]c(=O)nc-3n(CC(O)C(O)C(O)CO)c2cc1C (configuration not stated) [Riboflavin] | 3.65 min |
| Cc1nc2n(c(=O)c1CCN1CCC(c3noc4cc(F)ccc34)CC1)CCCC2 [Risperidone] | 2.42 min |
| O=C(O)C(c1ccccc1)C1CCCCN1 (configuration not stated) [Ritalinic Acid] | 3.41 min |
| C=C(C)C1Cc2c(ccc3c2OC2COc4cc(OC)c(OC)cc4C2C3=O)O1 (configuration not stated) [Rotenone] | 0.416 min |
| CC1OC(OCC2OC(Oc3c(-c4ccc(O)c(O)c4)oc4cc(O)cc(O)c4c3=O)C(O)C(O)C2O)C(O)C(O)C1O (configuration not stated) [Rutin] | 4.42 min |
| C[S+](CC[C@H](N)C(=O)[O-])C[C@H]1O[C@@H](n2cnc3c(N)ncnc32)[C@H](O)[C@@H]1O (stereo partly drawn) [S-(5'-Adenosyl)-L-methionine] | 8.08 min |
| CC(C)(C)NCC(O)c1ccc(O)c(CO)c1 (configuration not stated) [Salbutamol] | 3.16 min |
| NC(=O)c1ccccc1O [Salicylamide] | 0.448 min |
| NCCc1c[nH]c2ccc(O)cc12 [Serotonin] | 3.29 min |
| COc1cc(C2Oc3cc(C4Oc5cc(O)cc(O)c5C(=O)C4O)ccc3OC2CO)ccc1O (configuration not stated) [Silibinin] | 0.474 min |
| COc1cc(C=CC(=O)O)cc(OC)c1O [Sinapic acid] | 0.561 min |
| CC=CC=CC(=O)O [Sorbic acid] | 0.486 min |
| NCCCNCCCCNCCCN [Spermine] | 9.6 min |
| C=C1CC23CCC4C(C)(C(=O)OC5OC(CO)C(O)C(O)C5O)CCCC4(C)C2CCC1(OC1OC(CO)C(O)C(O)C1OC1OC(CO)C(O)C(O)C1O)C3 (configuration not stated) [Stevioside] | 4.85 min |
| O=C(O)CCCCCCC(=O)O [Suberic acid] | 0.712 min |
| O=C(O)CCCCCCC(=O)NCC(=O)O [Suberyl Glycine] | 5.46 min |
| OCC1OC(OC2(CO)OC(CO)C(O)C2O)C(O)C(O)C1O (configuration not stated) [Sucrose] | 6.27 min |
| Cc1noc(NS(=O)(=O)c2ccc(N)cc2)c1C [Sulfisoxazole] | 0.449 min |
| CC1=C(CC(=O)O)c2cc(F)ccc2C1=Cc1ccc(S(C)=O)cc1 (configuration not stated) [Sulindac] | 0.56 min |
| CNCC(O)c1ccc(O)cc1 (configuration not stated) [Synephrine] | 3.2 min |

| SMILES | LC retention time |
| --- | --- |
| CN1CC(=O)N2C(Cc3c([nH]c4ccccc34)C2c2ccc3c(c2)OCO3)C1=O (configuration not stated) [Tadalafil] | 0.457 min |
| CCC(=C(c1ccccc1)c1ccc(OCCN(C)C)cc1)c1ccccc1 [Tamoxifen] | 0.887 min |
| NCCS(=O)(=O)O [Taurine] | 5.82 min |
| CC(CCC(=O)NCCS(=O)(=O)O)C1CCC2C3CCC4CC(O)CCC4(C)C3CC(O)C12C (configuration not stated) [Taurodeoxycholic acid] | 2.71 min |
| CC(CCC(=O)NCCS(=O)(=O)O)C1CCC2C3C(O)CC4CC(O)CCC4(C)C3CCC12C (configuration not stated) [Tauroursodeoxycholic acid] | 2.7 min |
| Cn1cnc2c1c(=O)[nH]c(=O)n2C [Theobromine] | 0.687 min |
| Cn1c(=O)c2[nH]cnc2n(C)c1=O [Theophylline] | 0.596 min |
| Cc1ncc(C[n+]2csc(CCOP(=O)([O-])O)c2C)c(N)n1 [Thiamine monophosphate] | 8.44 min |
| CSc1ccc2c(c1)N(CCC1CCCCN1C)c1ccccc1S2 (configuration not stated) [Thioridazine] | 0.953 min |
| Cc1cn(C2CC(O)C(CO)O2)c(=O)[nH]c1=O (configuration not stated) [Thymidine] | 1.04 min |
| Cc1c[nH]c(=O)[nH]c1=O [Thymine] | 0.793 min |
| CCCCNC(=O)NS(=O)(=O)c1ccc(C)cc1 [Tolbutamide] | 0.432 min |
| CN(C)CCOc1ccc(C(=C(CCCl)c2ccccc2)c2ccccc2)cc1 [Toremifene] | 0.772 min |
| O=C(O)C=CCCCCCCCCC(=O)O [Traumatic acid] | 0.561 min |
| CC12C=CC(=O)C=C1CCC1C3CC(O)C(O)(C(=O)CO)C3(C)CC(O)C12F (configuration not stated) [Triamcinolone] | 0.499 min |
| Nc1nc(N)c2nc(-c3ccccc3)c(N)nc2n1 [Triamterene] | 2.5 min |
| CCN(Cc1ccncc1)C(=O)C(CO)c1ccccc1 (configuration not stated) [Tropicamide] | 0.641 min |
| NCCc1c[nH]c2ccccc12 [Tryptamine] | 2.25 min |
| NCCc1ccc(O)cc1 [Tyramine] | 3.19 min |
| NC(=O)NC(CC(=O)O)C(=O)O (configuration not stated) [Ureidosuccinic acid] | 5.96 min |
| O=c1ccn(C2OC(COP(=O)(O)OP(=O)(O)O)C(O)C2O)c(=O)[nH]1 (configuration not stated) [Uridine 5'-diphosphate] | 8.14 min |
| O=c1ccn(C2OC(COP(=O)(O)O)C(O)C2O)c(=O)[nH]1 (configuration not stated) [Uridine-5'-phosphoric acid] | 6.86 min |
| O=C(O)C=Cc1cnc[nH]1 [Urocanic acid] | 1.89 min |

| SMILES | LC retention time |
| --- | --- |
| CCCCC(=O)N(Cc1ccc(-c2ccccc2-c2nn[nH]n2)cc1)C(C(=O)O)C(C)C (configuration not stated) [Valsartan] | 0.733 min |
| CNC(CC(C)C)C(=O)NC1C(=O)NC(CC(N)=O)C(=O)NC2C(=O)NC3C(=O)NC(C(=O)NC(C(=O)O)c4cc(O)cc(O)c4-c4cc3ccc4O)C(O)c3ccc(c(Cl)c3)Oc3cc2cc(c3OC2OC(CO)C(O)C(O)C2OC2CC(C)(N)C(O)C(C)O2)Oc2ccc(cc2Cl)C1O (configuration not stated) [Vancomycin] | 8.2 min |
| COc1cc(C=O)ccc1O [Vanillin] | 0.435 min |
| CCCc1nc(C)c2c(=O)[nH]c(-c3cc(S(=O)(=O)N4CCN(CC)CC4)ccc3OCC)nn12 [Vardenafil] | 1.08 min |
| C=C1CCC(O)CC1=CC=C1CCCC2(C)C1CCC2C(C)CCCC(C)C (configuration not stated) [Vitamin D3] | 0.407 min |
| CC(=O)Oc1cc(C)c(OC(C)=O)c2ccccc12 [Vitamin K4] | 0.412 min |
| O=c1[nH]c(=O)c2[nH]cnc2[nH]1 [Xanthine] | 2.92 min |
| O=c1[nH]c(=O)c2ncn(C3OC(COP(=O)(O)O)C(O)C3O)c2[nH]1 (configuration not stated) [Xanthosine 5'-monophosphate] | 7.42 min |
| O=c1[nH]c(=O)c2ncn(C3OC(CO)C(O)C3O)c2[nH]1 (configuration not stated) [Xanthosine] | 5.1 min |
| OCC(O)C(O)C(O)CO (configuration not stated) [Xylitol] | 5.38 min |
| CC(N)c1ccccc1 (stereo not drawn) [alpha-Methylbenzylamine] | 2.3 min |
| O=P(O)(O)OC(CO)CO [beta-Glycerophosphoric acid] | 6.56 min |
| OC[C@H]1O[C@@H](O[C@H]2[C@H](O)[C@@H](O)[C@H](O)O[C@@H]2CO)[C@H](O)[C@@H](O)[C@H]1O [beta-Lactose] | 6.75 min |
| C=C1CCC2CC1C2(C)C (stereo not drawn) [beta-Pinene] | 0.452 min |
| NCCCC(=O)O [gamma-Aminobutyric acid] | 5.83 min |
| O=C(O)CNC(=O)c1cccc(O)c1 [m-Hydroxyhippuric Acid] | 3.46 min |
| Nc1ccc(C(=O)O)cc1 [p-Aminobenzoic acid] | 0.555 min |
| C[N+](C)(C)CCOP(=O)([O-])OCC(O)CO (configuration not stated) [sn-glycero-3-Phosphocholine] | 7.21 min |
| O=C(O)C/C=C/CC(=O)O [trans-2-Butene-1,4-dicarboxylic Acid] | 5.56 min |
| O=C/C=C/c1ccccc1 [trans-Cinnamaldehyde] | 0.43 min |
| O=C(O)/C=C/c1ccccc1 [trans-Cinnamic acid] | 0.485 min |
